Measured values as given in patent US20140018384A1, “QUINOLINONE DERIVATIVES FOR USE IN THE TREATMENT OF AN AUTOIMMUNE DISEASE AND/OR AN INFLAMMATORY DISEASE” (PRONOXIS AB, priority 2011, published 2014).
Read-outs that look alike come from different tables or passages of the source.

Tested on: PLB-985 cells
Experiment: ROS production (isoluminol/HRP luminescence) in PLB-985 cells, Biological Example 1
Type: cell-based
Description: To cells (HL-60 or PLB-985) in HBSS medium was added compound (25 or 50 μM), isoluminol and Horse Radish Peroxidase, fraction II. Luminescence was measured for 10-30 minutes and the area under the […] curve was divided by that from a control experiment to give the activity expressed as fold change.
Each assay indicated below was performed at a different site, at a different time, by different personnel and/or using different cell lines, concentrations and controls. The cell line, concentration of example compound and control used in respect of each assay were as indicated below. The values obtained from these different setups (each using an otherwise identical assay) are given as Activity A, B, C, D or E in Table 5 below. The values are expressed as fold increase of NADPH activity in the presence of the relevant of compound (as indicated below) compared to the relevant control (as indicated below).
Activity A: HL-60 cells; 50 μM compound vs. blank Activity B: PLB-985 cells; 25 μM compound vs. blank Activity C, D and E: PLB-985 cells; 25 μM compound vs. DMSO

[1] = 25 μM compound vs. DMSO, setup C, read-out: Activity C (fold increase of NADPH activity compared to control)
[2] = 25 μM compound vs. blank, read-out: Activity B (fold increase of NADPH activity compared to control)

Row | SMILES | fold induction at 25 µM [1] | fold induction at 25 µM [2]
1 | Cc1ccc(C(=O)c2cn(CC(=O)Nc3ccc(F)cc3)c3cc4c(cc3c2=O)OCO4)cc1C [Example 72, 2-[3-(3,4-Dimethylbenzoyl)-6,7-methylenedioxy-4-oxo-1-quinolinyl]-N-(4-fluorophenyl)acetamide] | 33.6 | 62.6
2 | COc1cc(NC(=O)Cn2cc(C(=O)c3ccc(C)c(C)c3)c(=O)c3cc4c(cc32)OCO4)cc(OC)c1 [Example 73, N-(3,5-Dimethoxyphenyl)-2-[3-(3,4-dimethylbenzoyl)-6,7-methylenedioxy-4-oxo-1-quinolinyl]acetamide] | 17.1 | 15.2
3 | Cc1ccc(C(=O)c2cn(CC(=O)Nc3ccc4c(c3)OCCO4)c3cc4c(cc3c2=O)OCO4)cc1C [Example 74, 2-[3-(3,4-Dimethylbenzoyl)-6,7-methylenedioxy-4-oxo-1-quinolinyl]-N-(3,4-ethylenedioxyphenyl)-acetamide] | 20.1 | 38
4 | COc1cccc(NC(=O)Cn2cc(C(=O)c3ccc(C)c(C)c3)c(=O)c3cc4c(cc32)OCO4)c1 [Example 75, N-m-Anisyl-2-[3-(3,4-dimethylbenzoyl)-6,7-methylenedioxy-4-oxo-1-quinolinyl]acetamide] | 5.3 | 7.7
5 | Cc1ccc(C(=O)c2cn(CC(=O)Nc3ccc4c(c3)OCO4)c3cc4c(cc3c2=O)OCO4)cc1C [Example 76, 2-[3-(3,4-Dimethylbenzoyl)-6,7-methylenedioxy-4-oxo-1-quinolinyl]-N-(3,4-methylenedioxyphenyl)-acetamide] | 23.9 | 43.6
6 | COc1ccc(C(=O)c2cn(CC(=O)Nc3cccc(OC)c3)c3cc4c(cc3c2=O)OCO4)cc1 [Example 77] | 2.8 | 
7 | CCc1ccc(C(=O)c2cn(CC(=O)Nc3ccc4c(c3)OCO4)c3cc4c(cc3c2=O)OCO4)cc1 [Example 78, 2-[3-(4-Ethylbenzoyl)-6,7-methylenedioxy-4-oxo-1-quinolinyl]-N-(3,4-methylenedioxyphenyl)acetamide] | 11.6 | 
8 | O=C(Cn1cc(S(=O)(=O)c2ccccc2)c(=O)c2cc3c(cc21)OCO3)Nc1ccccc1 [Example 79, 2-(3-Benzenesulfonyl-6,7-methylenedioxy-4-oxo-1-quinolinyl)-N-phenylacetamide] | 3.2 | 
9 | O=C(Cn1cc(S(=O)(=O)c2ccccc2)c(=O)c2cc3c(cc21)OCO3)Nc1ccc(F)cc1 [Example 80, 2-(3-Benzenesulfonyl-6,7-methylenedioxy-4-oxo-1-quinolinyl)-N-(4-fluorophenyl)acetamide] | 3.2 | 
10 | O=C(Cn1cc(C(=O)c2ccc(F)cc2)c(=O)c2cc3c(cc21)OCO3)Nc1ccc2c(c1)OCCO2 [Example 81, N-(3,4-Ethylenedioxyphenyl)-2-[3-(4-fluorobenzoyl)-6,7-methylenedioxy-4-oxo-1-quinolinyl]acetamide] | 22.6 | 
11 | CCc1ccc(NC(=O)Cn2cc(S(=O)(=O)c3ccccc3)c(=O)c3cc4c(cc32)OCO4)cc1 [Example 82, 2-(3-Benzenesulfonyl-6,7-methylenedioxy-4-oxo-1-quinolinyl)-N-(4-ethylphenyl)acetamide] | 5.9 | 
12 | O=C(Cn1cc(S(=O)(=O)c2ccc(F)cc2)c(=O)c2cc3c(cc21)OCO3)Nc1ccc(F)cc1 [Example 83, 2-[3-(4-Fluorobenzenesulfonyl)-6,7-methylenedioxy-4-oxo-1-quinolinyl]-N-(4-fluorophenyl)acetamide] | 2 | 
13 | COc1ccc(NC(=O)Cn2cc(S(=O)(=O)c3ccccc3)c(=O)c3cc4c(cc32)OCO4)cc1 [Example 85, N-p-Anisyl-2-(3-benzenesulfonyl-6,7-methylenedioxy-4-oxo-1-quinolinyl)acetamide] | 12.2 | 
14 | O=C(Cn1cc(C(=O)c2ccc(F)cc2)c(=O)c2cc3c(cc21)OCO3)Nc1ccc2c(c1)OCO2 [Example 86, 2-[3-(4-Fluorobenzoyl)-6,7-methylenedioxy-4-oxo-1-quinolinyl]-N-(3,4-methylenedioxyphenyl)acetamide] | 28.3 | 22.7
